{"source": "patent US20200138854A1", "about": "“Method of Detecting and Quantifying Bile Acid from Saliva” (Ironwood Pharmaceuticals, Inc., priority 2017, published 2020)", "key": {"[1]": {"test": "Frozen (−20° C.) short-term stability in cholestyramine-treated human saliva", "settings": "for % Bias QC-LLOQ / % CV QC-LLOQ / Mean concentration QC-LLOQ / Concentration QC-LLOQ: nominal 0.500 ng/mL; for Concentration QC-LLOQ / Concentration QC-Mid / Concentration QC-High: run 33; for % Bias QC-Mid / % CV QC-Mid / Mean concentration QC-Mid / Concentration QC-Mid: nominal 8.00 ng/mL; for % Bias QC-High / % CV QC-High / Mean concentration QC-High / Concentration QC-High: nominal 80.0 ng/mL", "how_it_was_run": "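Cholestyramine-treated human saliva was spiked with each analyte at QC-LLOQ, QC-Low, QC-Mid and QC-High levels and stored at −20° C. After 1 day and 2 days of storage, samples were extracted in replicates of four and analysed.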"}, "[2]": {"test": "Long-term (1 month at −20° C. and −80° C.) stability in untreated human saliva", "settings": "for % Bias QC-High / % CV QC-High / Difference from Fresh (%) QC-High / Mean concentration QC-High / Concentration QC-High / Fresh QCs (Batch 34) Mean at Time Zero, QC-High: untreated human saliva, nominal 80.0 ng/mL; for Concentration QC-High: run 35", "protocol": "(§1) For long-term stability in untreated human saliva, samples were prepared by spiking untreated human saliva with each analyte at the QC-Low and QC-High levels. The samples were stored in a −20° C. freezer and in a −80° C. freezer. After 1 month of storage, each sample was extracted in replicates of three for analysis.\n(§2) A 100-μL aliquot of sample (calibration standards, quality controls, blanks, and stability samples) was transferred into a 96 well plate, according to a pre-defined layout. […] The plates were covered, vortex-mixed and then centrifuged for 5 minutes at 3200 rpm. Supernatants (350 μL each) were transferred into the corresponding wells of a clean 96 well plate and evaporated to dryness under nitrogen in a Turbovap set to 40° C. The dried residue in each well was reconstituted with 75 μL of 50:50 (v:v) methanol:water."}, "[3]": {"settings": "in vivo, 3 h", "protocol": "Saliva samples were collected from 30 subjects from each group (Normal & GERD). All GERD patients were on proton pump inhibitor (PPI) standard therapy and received a PPI dose the morning of the visit to the clinic. Saliva samples were collected for 2 minutes (min) at the following time points: Fasted state in the morning; Various times after eating a hearty breakfast: 1 hour (hr) after meal; 2 hrs after meal; 3 hrs after meal; 4 hrs after meal.\nAll samples were received frozen, packaged on dry ice, and were stored in a freezer set to maintain a temperature of −80° C. until analysis.\nSaliva was collected from human volunteers and then pooled. Aliquots of pooled saliva were stripped of endogenous bile acids by treatment with 2 mg/mL of cholestyramine resin (Sigma Lot No. 1425455V) for 1 hour at 37° C. followed by centrifugation. The treatment/centrifugation cycle was repeated four times for a total of five cycles. After the final treatment, the saliva was pooled for use. […]\nStandards were prepared in small volumes on the day of sample extraction and were analyzed in duplicate in each analytical run. […]\nThe detector was an Applied Biosystems Sciex API-5500 triple quadrupole mass spectrometer. The instrument was equipped with an electrospray ionization source in positive-ion mode and the analytes were monitored in the multiple-reaction-monitoring scan mode. […]"}, "intragastric pH": {"tested_on": "intragastric pH", "settings": "cited from earlier work"}, "[4]": {"tested_on": "conscious, pentagastrin-stimulated fistula dog", "settings": "cited from earlier work"}, "[5]": {"settings": "1 month", "protocol": "as §1, §2"}}, "note": "Several values for one entry are separate records, joined by “and”; a condition that tells them apart may be missing. Identical values can stand only once. Like-named read-outs stand apart in the source and are kept apart here.", "data": [{"smiles": "C[C@H](CCC(=O)O)[C@H]1CC[C@H]2[C@@H]3CC[C@@H]4C[C@H](O)CC[C@]4(C)[C@H]3C[C@H](O)[C@]12C", "note": "[Deoxycholic Acid, Deoxycholic acid]", "values": [{"measurement": "Short-term stability in cholestyramine-treated human saliva", "setting": "[1]", "value": "up to 2 days"}, {"measurement": "Stability in Treated Human Saliva", "setting": "[1]", "value": 2, "unit": "days"}, {"measurement": "Long-term stability in untreated human saliva", "setting": "[2]; at 80° C. (sic)", "value": "up to 1 month"}, {"measurement": "Stability in Untreated Human Saliva", "setting": "[2]; at −20° C.", "value": 1, "unit": "Month"}, {"measurement": "Stability in Untreated Human Saliva", "setting": "[2]; at −80° C.", "value": 1, "unit": "Month"}, {"measurement": "Concentration in human saliva samples", "setting": "[3]", "value": 1.65, "unit": "ng/mL"}]}, {"smiles": "COC(=O)Nc1cccc(C)c1CNc1cccn2c(C)c(C)nc12", "note": "[BY841, (8-(2-methoxycarbonylamino-6-methyl-phenylmethylamino)-2,3-dimethyl-imidazo [1,2-a]-pyridine)]", "values": [{"measurement": "effectiveness in comparison with the standard dose of omeprazole", "setting": "intragastric pH; 50 mg or 100 mg twice daily, Day one of treatment", "value": "markedly more effective"}, {"measurement": "potency in comparison with the standard dose of omeprazole", "setting": "intragastric pH; 50 mg or 100 mg twice daily, following repeated daily administration", "value": "at least as potent as omeprazole"}, {"measurement": "intragastric pH", "setting": "intragastric pH; single 50 mg oral dose", "value": "about 6"}, {"measurement": "intragastric pH", "setting": "[4]", "value": "≤ 6"}, {"measurement": "pH elevation compared with ranitidine and omeprazole", "setting": "[4]", "value": "superior to both ranitidine and omeprazole"}]}, {"smiles": "CC(CCC(=O)NCC(=O)O)C1CCC2C3C(O)CC4CC(O)CCC4(C)C3CCC12C", "note": "(stereo not drawn) [Glycochenodeoxycholic Acid, Glycochenodeoxycholic acid]", "values": [{"measurement": "% Bias QC-LLOQ", "setting": "[1]; 1 Day at −20° C.", "value": 9.1, "unit": "%"}, {"measurement": "% CV QC-LLOQ", "setting": "[1]; 1 Day at −20° C.", "value": 4.7, "unit": "%"}, {"measurement": "Mean concentration QC-LLOQ", "setting": "[1]; 1 Day at −20° C.", "value": 0.546, "unit": "ng/mL"}, {"measurement": "Concentration QC-LLOQ", "setting": "[1]; 1 Day at −20° C.", "value": "0.538 ng/mL and 0.551 ng/mL and 0.516 ng/mL and 0.578 ng/mL"}, {"measurement": "% Bias QC-Mid", "setting": "[1]; 1 Day at −20° C.", "value": "−2.4", "unit": "%"}, {"measurement": "% CV QC-Mid", "setting": "[1]; 1 Day at −20° C.", "value": 2.4, "unit": "%"}, {"measurement": "Mean concentration QC-Mid", "setting": "[1]; 1 Day at −20° C.", "value": 7.81, "unit": "ng/mL"}, {"measurement": "Concentration QC-Mid", "setting": "[1]; 1 Day at −20° C.", "value": "7.56 ng/mL and 7.99 ng/mL and 7.92 ng/mL and 7.76 ng/mL"}, {"measurement": "% Bias QC-High", "setting": "[1]; 1 Day at −20° C.", "value": "−1.3", "unit": "%"}, {"measurement": "% CV QC-High", "setting": "[1]; 1 Day at −20° C.", "value": 2.2, "unit": "%"}, {"measurement": "Mean concentration QC-High", "setting": "[1]; 1 Day at −20° C.", "value": 78.9, "unit": "ng/mL"}, {"measurement": "Concentration QC-High", "setting": "[1]; 1 Day at −20° C.", "value": "79.3 ng/mL and 80.9 ng/mL and 76.6 ng/mL and 78.9 ng/mL"}, {"measurement": "% Bias QC-LLOQ", "setting": "[1]; 2 Days at −20° C.", "value": 16.5, "unit": "%"}, {"measurement": "% CV QC-LLOQ", "setting": "[1]; 2 Days at −20° C.", "value": 4.1, "unit": "%"}, {"measurement": "Mean concentration QC-LLOQ", "setting": "[1]; 2 Days at −20° C.", "value": 0.583, "unit": "ng/mL"}, {"measurement": "Concentration QC-LLOQ", "setting": "[1]; 2 Days at −20° C.", "value": "0.596 ng/mL and 0.597 ng/mL and 0.555 ng/mL and 0.674^a ng/mL"}, {"measurement": "% Bias QC-Mid", "setting": "[1]; 2 Days at −20° C.", "value": 2.1, "unit": "%"}, {"measurement": "% CV QC-Mid", "setting": "[1]; 2 Days at −20° C.", "value": 3.8, "unit": "%"}, {"measurement": "Mean concentration QC-Mid", "setting": "[1]; 2 Days at −20° C.", "value": 8.17, "unit": "ng/mL"}, {"measurement": "Concentration QC-Mid", "setting": "[1]; 2 Days at −20° C.", "value": "7.71 ng/mL and 8.40 ng/mL and 8.22 ng/mL and 8.33 ng/mL"}, {"measurement": "% Bias QC-High", "setting": "[1]; 2 Days at −20° C.", "value": 0.9, "unit": "%"}, {"measurement": "% CV QC-High", "setting": "[1]; 2 Days at −20° C.", "value": 2.9, "unit": "%"}, {"measurement": "Mean concentration QC-High", "setting": "[1]; 2 Days at −20° C.", "value": 80.8, "unit": "ng/mL"}, {"measurement": "Concentration QC-High", "setting": "[1]; 2 Days at −20° C.", "value": "78.3 ng/mL and 80.4 ng/mL and 80.3 ng/mL and 84.0 ng/mL"}, {"measurement": "Short-term stability in cholestyramine-treated human saliva", "setting": "[1]", "value": "up to 2 days"}, {"measurement": "Stability in Treated Human Saliva", "setting": "[1]", "value": 2, "unit": "days"}, {"measurement": "Long-term stability in untreated human saliva", "setting": "[5]", "value": "up to 1 month"}, {"measurement": "Stability in Untreated Human Saliva", "setting": "[5]", "value": 1, "unit": "Month"}, {"measurement": "% Bias QC-High", "setting": "[2]; 1 month −20° C. storage", "value": "−4.9", "unit": "%"}, {"measurement": "% CV QC-High", "setting": "[2]; 1 month −20° C. storage", "value": 2.4, "unit": "%"}, {"measurement": "Difference from Fresh (%) QC-High", "setting": "[2]; 1 month −20° C. storage", "value": "−4.4", "unit": "%"}, {"measurement": "Mean concentration QC-High", "setting": "[2]; 1 month −20° C. storage", "value": 76.1, "unit": "ng/mL"}, {"measurement": "Concentration QC-High", "setting": "[2]; 1 month −20° C. storage", "value": "74.0 ng/mL and 77.4 ng/mL and 76.9 ng/mL"}, {"measurement": "% Bias QC-High", "setting": "[2]; 1 month −80° C. storage", "value": "−3.6", "unit": "%"}, {"measurement": "% CV QC-High", "setting": "[2]; 1 month −80° C. storage", "value": 5.0, "unit": "%"}, {"measurement": "Difference from Fresh (%) QC-High", "setting": "[2]; 1 month −80° C. storage", "value": "−3.1", "unit": "%"}, {"measurement": "Mean concentration QC-High", "setting": "[2]; 1 month −80° C. storage", "value": 77.1, "unit": "ng/mL"}, {"measurement": "Concentration QC-High", "setting": "[2]; 1 month −80° C. storage", "value": "80.6 ng/mL and 77.8 ng/mL and 73.0 ng/mL"}, {"measurement": "Fresh QCs (Batch 34) Mean at Time Zero, QC-High", "setting": "[2]; reference for −20° C. storage", "value": 79.6, "unit": "ng/mL"}, {"measurement": "Fresh QCs (Batch 34) Mean at Time Zero, QC-High", "setting": "[2]; reference for −80° C. storage", "value": 79.6, "unit": "ng/mL"}]}]}
